According to patent US7026330B2, “Methods for treatment of acute lymphocytic leukemia” (The Children's Hospital of Philadelphia, priority 2002, dated 2006):
“Also recorded” adds a separate entry of the source. Read-outs that look alike come from different tables or passages of the source.

Tests used:
[1] = test system: Eμ-RET+ transgenic mouse derived cell lines, #83, T309, #289, #420.2; experiment: MTT proliferation assay, ALL cell lines; type: cell-based
Experimental: (§1) Cell Preparation and Cell Culture Conditions. A single cell suspension of bone marrow or lymph nodes from leukemic Eμ-RET+ transgenic mice was prepared [Wasserman, 1998]. These ALL cells were maintained at 37° C. with 5% CO2 in RPMI-1640, L-Glutamine, 10 mM HEPES, 1 mM Sodium Pyruvate, 100 μM non-essential amino acids, 100 U/ml penicillin, 100 μg/ml streptomycin (GibCo-BRL, Rocksville, Md.), 50 μM 2-mercaptoethanol (FisherScientific, Fair Lawn, N.J.)+10% Fetal Calf Serum (HyClone, Logan, Utah)+10% Calf Serum (HyClone, Logan Utah) (C20 media) with 10 U/ml IL-7. Cell surface markers on these cells were determined by flow cytometry as described previously [Wasserman, 1998], and the phenotype was stable in culture over time.
(§2) Proliferation Assays. Cells were cultured in IL-7-free C20 media for 24 hours. […] Cell growth was assayed using methyl-thiazole-tetrazolin (MTT) [Mosmann, 1983]. After removing 50 μl media from each well, 10 μl MTT, 5 mg/ml, (Sigma, St. Louis, Mo.) was added to each sample and incubated for 4 hours. 150 μl 1% HCL/Isopropanol was added to each sample and mixed vigorously until all crystals dissolved. Absorbance was measured at OD595 using microplate spectrophotometer (Benchmark Microplate Reader, Bio-Rad Laboratories, Hercules, Calif.). Results are expressed as mean of absolute absorbance numbertreated sample divided by the mean of absolute absorbance numbercontrol sample. Results >1 indicates proliferation whereas results <1 indicates growth inhibition.

pro-B ALL cell line T309 = experiment: Apoptosis assay (Annexin V-FITC, flow cytometry); type: cell-based, mouse; conditions: 72 hours, baseline 24%
Experimental: Apoptosis Assay. […] Levels of exposed phosphotidylserine on viable cells were measured using the ApoAlert Annexin V detection kit (Clontech, Palo Alto, Calif.). Cells were incubated with FITC-conjugated Annexin V, and log fluorescence intensity was analyzed by flow cytometry using a FACScan cytometer (Becton-Dickinson, Franklin Lakes, N.J.).

[2] = test system: Eμ-RET+ transgenic mice with overt disease; conditions: for Plt, mean / WBC, mean / Weight, mean: treated group
Experimental: Mice were assessed three times a week for overt signs of disease (enlarged lymph nodes, organomegaly, and anemia). […] Prior to randomization, easily accessible enlarged lymph nodes were biopsied for cell culture and further in vitro study. Peripheral blood for CBC with differential (HemaVet 850FS, Cell Technologies, Oxford, Conn.) and pK studies was obtained by eye bleeding at days 0, 7, 14 and then every other week until death. Peripheral blood as well as single cell suspension from bone marrow, lymph nodes and/or spleen was obtained at death. Weights were monitored three times a week. […] Animals were sacrificed when moribund. Event free survival (EFS) was determined from onset of disease until death, and analyzed using STATA 7.0 (STATA Corporation, College Park, Tex.).

[3] = cited from earlier work; for trough concentration: Phase III studies with cyclosporine, steroid, or both; for mean time-to-peak concentration: oral
[4] = cited from earlier work
[5] = test system: steroid refractory severe acute GVHD; conditions: cited from earlier work
ALL cell lines = experiment: RAD001 growth suppression in ALL cells in vitro; type: cell-based
[6] = test system: Eμ-RET+ mice with advanced leukemia; experiment: RAD001 in the ALL mouse model; type: in vivo; conditions: daily oral administration
Source text: RAD001 inhibits growth >50–90% in ALL cell lines. Daily oral administration of RAD001 extends survival almost 4 fold in Eμ-RET+ mice with advanced leukemia (high white blood count, large nodal masses, and massive hepatosplenomegaly) as compared to untreated littermates.

ALL cell line #289 = experiment: MTT proliferation assay, cell line #289; type: cell-based, mouse
Experimental: as §1, §2

cell line #420.2 = experiment: MTT proliferation assay, cell line #420.2; type: cell-based, mouse; conditions: increasing rmIL-7 0–30 U/ml, no stroma, 4–5 days
Experimental: as §1
(§3) Proliferation Assays. Cells were cultured in IL-7-free C20 media for 24 hours. […] Cell growth was assayed using methyl-thiazole-tetrazolin (MTT) [Mosmann, 1983]. After removing 50 μl media from each well, 10 μl MTT, 5 mg/ml, (Sigma, St. Louis, Mo.) was added to each sample and incubated for 4 hours. […] Absorbance was measured at OD595 using microplate spectrophotometer (Benchmark Microplate Reader, Bio-Rad Laboratories, Hercules, Calif.). Results are expressed as mean of absolute absorbance numbertreated sample divided by the mean of absolute absorbance numbercontrol sample. […]

cell line T309 = experiment: MTT proliferation assay, cell line T309; type: cell-based, mouse; conditions: increasing rmIL-7 0–30 U/ml, no stroma, 4–5 days
Experimental: as §1, §3

#781 cell line = experiment: MTT proliferation assay, cell line #781; type: cell-based, mouse; conditions: increasing rmIL-7 0–30 U/ml, no stroma, 4–5 days
Experimental: as §1, §3

cell line #83 = experiment: MTT proliferation assay, cell line #83; type: cell-based, mouse; conditions: increasing rmIL-7 0–30 U/ml, no stroma, 4–5 days
Experimental: as §1, §3

A20 mature B cell line = experiment: Proliferation of mature B cell line A20; type: cell-based; conditions: data not shown
Experimental: as §2

[7] = test system: phosphor-p70S6 kinase (Thr389); experiment: Immunoblotting of p70S6 kinase in ALL cell line #289; type: cell-based, mouse; conditions: 4 hours
Experimental: Crude Lysate Preparation and Immunoblotting. […] After harvesting, cells were washed with ice cold PBS and then lysed in 100 μl of 1% Triton-X containing protease and phosphatase inhibitors (1 μg/ml apoprotinin, 1 μg/ml leupeptin, 1 mM […], 1 mM NaF, 0.1 mM AEBSF) at 4° C. for 5 minutes. Crude lysates were obtained by centrifugation (12,000 rpm at 4° C. for 20 minutes). Protein concentrations were determined using Bio-Rad Protein assay kit (Bio-Rad Laboratories, Hercules, Calif.). Equal amounts of protein were analyzed by 4–12% Tris-Bis gel electrophoresis and transferred to PVDF membranes (NuPage Invitrogen, Carlsbad, Calif.). Specific proteins were detected with anti-Phosphor-p70S6 kinase (Thr389) and anti-total p70S6 kinase antibodies (Cell Signaling Technologies, Beverly, Mass.) diluted in TTBS (1:500). Immunodetection was performed with horseradish peroxidase-conjugated anti-rabbit IgG and then developed by chemoluminescence (Amersham Pharmacia Biotech, Piscataway, N.J.). Immunoblots were stripped for reprobing by incubating immunoblots in stripping buffer (100 mM 2-mercaptoethanol, 2% sodium dodecyl sulphate, 62.5 mM Tris-HCl pH 6.7) for 30 minutes in 37° C. water bath with occasional agitation. […] Specific proteins were immunoblotted and detected as above.

YES proto-oncogene = experiment: mRNA expression in ALL cells (Affymetrix MG-U74Av4 Genechips); type: cell-based; conditions: addition of IL-7
Source text: We found the most profound change in expression in the YES proto-oncogene, a member of the src family of kinases. […] However, the ability of IL-7 to reverse rapamycin-induced growth inhibition may involve other target proteins downstream of p70S6 kinase, such as p27kip1 or cdk2.

[8] = Mus musculus, 72 h, read-out: inhibition of growth

CO[C@H]1C[C@@H]2CC[C@@H](C)[C@@](O)(O2)C(=O)C(=O)N2CCCC[C@H]2C(=O)O[C@H]([C@H](C)C[C@@H]2CC[C@@H](O)[C@H](OC)C2)CC(=O)[C@H](C)/C=C(\C)[C@@H](O)[C@@H](OC)C(=O)[C@H](C)C[C@H](C)/C=C/C=C/C=C/1C [rapamycin]
inhibition at 0.001 µg/mL [1, 8]: > 40% | inhibition at 0.1 µg/mL [1, 8]: > 70% | cells labeled with Annexin V (pro-B ALL cell line T309; 1 ng/ml rapamycin): 44% | cells labeled with Annexin V (pro-B ALL cell line T309; 100 ng/ml rapamycin): 51% | mean hemoglobin and platelet counts, untreated vs rapamycin treated mice ([2]; 5 mg/kg IP daily): not significantly different | time to normalization of WBC after instituting therapy ([2]; 5 mg/kg IP daily): 7 to 10 days | weights of treated versus untreated groups ([2]; 5 mg/kg IP daily): not significantly different | average time from diagnosis to death ([2]; 5 mg/kg IP daily, N=34, untreated 12 days (N=23), p<0.001): 30 days | extension of survival vs untreated mice ([2]; 5 mg/kg IP daily, single agent, advanced disease): ~3 fold | WBC nadir of the typical mouse of FIG. 8 ([2]; after 14 days of rapamycin, WBC 28.8 at presentation): 3.2 | Plt, mean ([2]; D0): 695000 µL⁻¹ | WBC, mean ([2]; D0): 47800 µL⁻¹ | Weight, mean ([2]; D0): 25.6 grams | Plt, mean ([2]; D7): 584000 µL⁻¹ | WBC, mean ([2]; D7): 18500 µL⁻¹ | Weight, mean ([2]; D14): 28.1 grams | Plt, mean ([2]; at sacrifice): 573000 µL⁻¹ | WBC, mean ([2]; at sacrifice): 31000 µL⁻¹ | Weight, mean ([2]; at sacrifice): 28.10 grams | Plt, mean ([2]; d21): 526000 µL⁻¹ | WBC, mean ([2]; d21): 14300 µL⁻¹ | trough concentration ([3]; 2 mg/day): 8.58 ± 4.0 ng/mL | trough concentration ([3]; 5 mg/day): 17.3 ± 7.4 ng/mL | elimination of the drug via the GI tract ([3]; human, in vivo): 91% | metabolism ([3]; human, in vivo): intestinal and hepatic CYP3A4 enzyme family | time to near steady-state concentrations ([3]; loading dose of 3 times the maintenance dose, most patients): ≤ 1 days | mean time-to-peak concentration ([3]; healthy subjects): 1 h | mean time-to-peak concentration ([3]; renal transplant recipients): 2 h | typical serum levels of patients ([3]; patients on rapamycin [MacDonald, 2000]): 8 to 12 ng/mL | half-lives ([3]; pediatric patients 5–11 years): shorter | oral clearances ([3]; pediatric patients 5–11 years): greater | dose dependence of concentrations ([3]; stable renal transplant patients, between 3 and 12 mg/m^2): dose proportional | major side effects ([4]; adult organ rejection trials, 2 mg or 5 mg daily with cyclosporine and corticosteroids): thrombocytopenia, hypercholesteremia, hypertriglyceridemia, and diarrhea | toxicities of CTC Grade III and IV ([4]; pediatric kidney transplantation, with corticosteroids and MMF): stomatitis, hypercholesteremia, and hypertriglyceridemia | toxicity in single dosing studies ([4]; single doses ranging from 3–21 mg/m^2): No toxicity | discontinuation of drug because of toxicities ([5]; 21 patients): 5 patients | hemolytic uremic syndrome developed ([5]; cyclosporine dose not reduced): 5 patients | most common side effects ([5]; in vivo): thrombocytopenia and neutropenia, elevated serum triglycerides and cholesterol

CO[C@H]1C[C@@H]2CC[C@@H](C)[C@@](O)(O2)C(=O)C(=O)N2CCCC[C@H]2C(=O)O[C@H]([C@H](C)C[C@@H]2CC[C@@H](OCCO)[C@H](OC)C2)CC(=O)[C@H](C)/C=C(\C)[C@@H](O)[C@@H](OC)C(=O)[C@H](C)C[C@H](C)/C=C/C=C/C=C/1C [RAD001, everolimus]
growth inhibition (ALL cell lines): 50–90% | extension of survival vs untreated littermates [6]: ~4 fold | nodal masses [6]: disappearance of nodal masses | peripheral WBC counts [6]: normalization of peripheral WBC counts

B1: rmIL-7: recombinant mouse IL-7 (rmIL-7) (Leinco Technologies, Inc.) (protein, UniProt P10168 26-154, looked up)
Interleukin-7: ECHIKDKEGKAYESVLMISIDELDKMTGTDSNCPNNEPNFFRKHVCDDTKEAAFLNRAARKLKQFLKMNISEEFNVHLLTVSQGTQTLVNCTSKEEKNVKEQKKNDACFLKRLLREIKTCWNKILKGSI
concentration at which the response appears to plateau ([1]; cell lines #83, #781, T309, #289, #420.2): 10–30 U/ml | increase in proliferation (ALL cell line #289; increasing rmIL-7 0–30 U/ml, no stroma, 4–5 days): 2.2 fold | reversal of rapamycin-induced growth inhibition (ALL cell line #289; rmIL-7 10 U/ml with rapamycin 1 ng/ml, 3 days): completely reverses | reversal of rapamycin's effect on cell growth (ALL cell line #289; rmIL-7 10 U/ml with rapamycin 100 ng/ml, 3 days, only partial): ~80 % of baseline | increase in proliferation (cell line #420.2): 2.2 fold | increase in proliferation (cell line T309): 3.7 fold | increase in proliferation (#781 cell line): 16 fold | increase in proliferation (cell line #83): ~100 fold | proliferation (A20 mature B cell line): not affected | effect on rapamycin-induced decrease in phosphor-p70S6 kinase ([7]; 10 U/ml IL-7 + 100 ng/ml rapamycin, listed as IL-7): reversed; also recorded: restored to baseline | p70S6 kinase total protein levels ([7]; 100 ng/ml rapamycin or 10 U/ml IL-7): unchanged | effect on YES expression in rapamycin-treated cells (YES proto-oncogene): completely rescued
